IC50 and half-life data for 33 compounds are collected here from ChEMBL document CHEMBL5126595, “Identification and anti-tumor evaluation of 3-acyl-indol-based 2,4-diarylaminopyrimidine analogues as potent ALK inhibitors capable of overcoming drug-resistant mutants” (Eur J Med Chem, 2022).

One data set concerns NCI-H2228. Nature of the data set: Antiproliferative activity against EML4-ALK positive human NCI-H2228 cells assessed as inhibition of cell growth incubated for 72 hrs by MTT assay. The following applies: NCI-H2228, 72 h. It counts as functional, cell-based. (Tetrazolium assays rely on reduction of a dye to a coloured formazan, in cell work by metabolically active cells.)
In a further data set the test system is A549. Nature of the data set: Antiproliferative activity against EGFR positive human A549 cells assessed as inhibition of cell growth incubated for 72 hrs by MTT assay. The format is functional, cell-based. The following applies: A549, 72 h.
The test system of a further data set is KARPAS-299. Put plainly: Antiproliferative activity against NPM-ALK positive human KARPAS-299 cells assessed as inhibition of cell growth incubated for 72 hrs by MTT assay. It counts as functional, cell-based. The following applies: KARPAS-299, 72 h.
Data set [1] concerns the target ALK tyrosine kinase receptor (Homo sapiens, UniProt Q9UM73, L1196M). Nature of the data set: Inhibition of N-terminal GST-tagged human ceritinib-resistant ALK L1196M mutant (1058 to 1620 residues) cytoplasmic domain expressed in baculovirus infected Sf21 cells incubated for 1 hrs in the presence of ATP by mobility shift assay.
In data set [2] the target is ALK tyrosine kinase receptor (Homo sapiens, UniProt Q9UM73, G1202R). Nature of the data set: Inhibition of N-terminal GST-tagged human ceritinib-resistant ALK G1202R mutant (1058 to 1620 residues) cytoplasmic domain expressed in baculovirus infected Sf21 cells incubated for 1 hrs in the presence of ATP by mobility shift assay.
ALK tyrosine kinase receptor (Homo sapiens, UniProt Q9UM73, G1202R), sequence (Q9UM73 19-1620 G1202R limits assumed): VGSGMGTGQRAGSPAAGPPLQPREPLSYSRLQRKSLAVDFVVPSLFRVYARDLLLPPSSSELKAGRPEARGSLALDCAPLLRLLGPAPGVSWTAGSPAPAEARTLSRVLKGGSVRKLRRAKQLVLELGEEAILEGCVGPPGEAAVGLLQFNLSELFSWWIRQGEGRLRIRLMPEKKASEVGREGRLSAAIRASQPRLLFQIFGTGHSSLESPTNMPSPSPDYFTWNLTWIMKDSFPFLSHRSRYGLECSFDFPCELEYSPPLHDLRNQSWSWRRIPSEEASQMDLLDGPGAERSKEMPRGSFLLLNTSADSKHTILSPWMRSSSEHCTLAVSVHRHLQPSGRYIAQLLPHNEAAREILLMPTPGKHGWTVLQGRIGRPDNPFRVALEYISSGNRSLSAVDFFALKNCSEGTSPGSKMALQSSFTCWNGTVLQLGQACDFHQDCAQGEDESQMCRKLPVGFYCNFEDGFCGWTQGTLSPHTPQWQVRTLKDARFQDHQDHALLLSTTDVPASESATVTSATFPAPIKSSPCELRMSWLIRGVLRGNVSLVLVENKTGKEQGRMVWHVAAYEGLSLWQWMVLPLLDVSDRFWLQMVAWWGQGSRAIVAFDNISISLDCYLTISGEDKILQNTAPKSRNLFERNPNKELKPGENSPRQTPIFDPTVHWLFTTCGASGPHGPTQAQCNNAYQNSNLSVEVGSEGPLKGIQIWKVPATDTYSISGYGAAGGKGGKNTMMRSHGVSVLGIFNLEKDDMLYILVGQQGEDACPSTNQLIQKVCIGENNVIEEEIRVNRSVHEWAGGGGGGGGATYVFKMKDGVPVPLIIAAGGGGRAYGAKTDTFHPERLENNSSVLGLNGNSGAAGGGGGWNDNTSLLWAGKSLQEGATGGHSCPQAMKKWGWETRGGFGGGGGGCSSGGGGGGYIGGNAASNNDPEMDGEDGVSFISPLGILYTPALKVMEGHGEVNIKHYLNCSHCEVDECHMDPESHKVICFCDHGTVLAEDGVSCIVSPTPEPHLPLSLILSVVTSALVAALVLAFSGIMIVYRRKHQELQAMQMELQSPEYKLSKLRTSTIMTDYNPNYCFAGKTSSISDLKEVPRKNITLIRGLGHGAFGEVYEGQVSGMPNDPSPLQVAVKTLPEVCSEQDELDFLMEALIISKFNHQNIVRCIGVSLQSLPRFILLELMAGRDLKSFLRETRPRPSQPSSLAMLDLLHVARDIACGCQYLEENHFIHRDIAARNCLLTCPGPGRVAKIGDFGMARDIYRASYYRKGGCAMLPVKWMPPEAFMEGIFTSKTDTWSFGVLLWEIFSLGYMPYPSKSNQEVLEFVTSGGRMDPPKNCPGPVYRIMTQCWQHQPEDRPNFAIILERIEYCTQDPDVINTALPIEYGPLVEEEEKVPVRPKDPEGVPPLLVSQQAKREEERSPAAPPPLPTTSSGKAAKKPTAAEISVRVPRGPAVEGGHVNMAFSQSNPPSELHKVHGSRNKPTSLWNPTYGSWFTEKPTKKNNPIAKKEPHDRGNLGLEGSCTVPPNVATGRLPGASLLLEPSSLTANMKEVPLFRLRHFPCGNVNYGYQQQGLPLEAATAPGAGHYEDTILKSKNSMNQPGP
The target of data set [3] is ALK tyrosine kinase receptor (Homo sapiens, UniProt Q9UM73). Nature of the data set: Inhibition of N-terminal GST-tagged human wild type ALK (1058 to 1620 residues) cytoplasmic domain expressed in baculovirus infected Sf21 cells incubated for 1 hrs in the presence of ATP by mobility shift assay.
ALK tyrosine kinase receptor (Homo sapiens, UniProt Q9UM73), sequence (Q9UM73 whole entry, the tested form may be a part): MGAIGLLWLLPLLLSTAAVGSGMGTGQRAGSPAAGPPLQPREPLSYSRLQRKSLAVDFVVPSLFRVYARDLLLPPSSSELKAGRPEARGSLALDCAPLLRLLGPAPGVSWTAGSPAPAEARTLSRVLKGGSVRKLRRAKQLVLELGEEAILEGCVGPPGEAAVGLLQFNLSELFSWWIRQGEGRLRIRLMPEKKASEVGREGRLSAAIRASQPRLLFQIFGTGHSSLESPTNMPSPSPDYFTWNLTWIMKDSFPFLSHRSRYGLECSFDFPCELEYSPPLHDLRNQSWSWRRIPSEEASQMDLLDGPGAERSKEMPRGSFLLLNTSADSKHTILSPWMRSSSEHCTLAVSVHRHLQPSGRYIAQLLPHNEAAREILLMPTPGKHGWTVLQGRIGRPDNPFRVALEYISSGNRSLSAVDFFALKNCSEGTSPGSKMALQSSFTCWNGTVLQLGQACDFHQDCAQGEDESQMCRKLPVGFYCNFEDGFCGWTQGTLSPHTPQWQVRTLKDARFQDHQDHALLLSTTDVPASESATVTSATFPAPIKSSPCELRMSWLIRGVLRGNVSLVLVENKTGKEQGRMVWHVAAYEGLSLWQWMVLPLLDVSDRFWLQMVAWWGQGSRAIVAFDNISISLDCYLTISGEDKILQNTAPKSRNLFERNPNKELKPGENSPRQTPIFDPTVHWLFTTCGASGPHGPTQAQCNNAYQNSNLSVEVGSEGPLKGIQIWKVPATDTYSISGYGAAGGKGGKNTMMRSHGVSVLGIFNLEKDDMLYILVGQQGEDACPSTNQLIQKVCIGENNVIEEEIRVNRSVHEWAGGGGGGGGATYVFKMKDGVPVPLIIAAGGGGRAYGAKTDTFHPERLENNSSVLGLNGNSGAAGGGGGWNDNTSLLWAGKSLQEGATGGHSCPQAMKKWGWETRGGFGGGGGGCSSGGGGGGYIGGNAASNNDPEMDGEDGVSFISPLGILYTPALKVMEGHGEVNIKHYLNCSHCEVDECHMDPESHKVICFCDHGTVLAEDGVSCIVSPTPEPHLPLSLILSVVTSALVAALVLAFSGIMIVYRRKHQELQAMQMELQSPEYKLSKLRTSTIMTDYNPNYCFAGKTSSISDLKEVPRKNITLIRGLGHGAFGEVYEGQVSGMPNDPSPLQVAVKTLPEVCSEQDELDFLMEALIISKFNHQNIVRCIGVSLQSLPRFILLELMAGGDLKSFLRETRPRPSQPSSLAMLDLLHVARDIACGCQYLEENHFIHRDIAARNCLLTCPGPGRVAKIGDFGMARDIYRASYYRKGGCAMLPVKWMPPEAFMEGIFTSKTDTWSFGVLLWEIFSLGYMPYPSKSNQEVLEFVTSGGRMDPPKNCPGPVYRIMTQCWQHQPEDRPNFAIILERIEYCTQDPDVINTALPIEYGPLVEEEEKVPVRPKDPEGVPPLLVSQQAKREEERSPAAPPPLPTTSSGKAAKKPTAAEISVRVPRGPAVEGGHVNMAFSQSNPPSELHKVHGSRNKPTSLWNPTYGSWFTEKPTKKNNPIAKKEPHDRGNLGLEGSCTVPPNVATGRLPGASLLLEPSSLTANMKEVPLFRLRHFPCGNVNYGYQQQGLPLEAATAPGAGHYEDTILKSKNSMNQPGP
The target of data set [4] is Epidermal growth factor receptor (Homo sapiens, UniProt P00533). Nature of the data set: Inhibition of human EGFR (669 to 1210 residues) cytoplasmic domain expressed in baculovirus infected Sf21 cells incubated for 1 hrs in the presence of ATP by mobility shift assay.
Epidermal growth factor receptor, sequence (P00533 whole entry, the tested form may be a part): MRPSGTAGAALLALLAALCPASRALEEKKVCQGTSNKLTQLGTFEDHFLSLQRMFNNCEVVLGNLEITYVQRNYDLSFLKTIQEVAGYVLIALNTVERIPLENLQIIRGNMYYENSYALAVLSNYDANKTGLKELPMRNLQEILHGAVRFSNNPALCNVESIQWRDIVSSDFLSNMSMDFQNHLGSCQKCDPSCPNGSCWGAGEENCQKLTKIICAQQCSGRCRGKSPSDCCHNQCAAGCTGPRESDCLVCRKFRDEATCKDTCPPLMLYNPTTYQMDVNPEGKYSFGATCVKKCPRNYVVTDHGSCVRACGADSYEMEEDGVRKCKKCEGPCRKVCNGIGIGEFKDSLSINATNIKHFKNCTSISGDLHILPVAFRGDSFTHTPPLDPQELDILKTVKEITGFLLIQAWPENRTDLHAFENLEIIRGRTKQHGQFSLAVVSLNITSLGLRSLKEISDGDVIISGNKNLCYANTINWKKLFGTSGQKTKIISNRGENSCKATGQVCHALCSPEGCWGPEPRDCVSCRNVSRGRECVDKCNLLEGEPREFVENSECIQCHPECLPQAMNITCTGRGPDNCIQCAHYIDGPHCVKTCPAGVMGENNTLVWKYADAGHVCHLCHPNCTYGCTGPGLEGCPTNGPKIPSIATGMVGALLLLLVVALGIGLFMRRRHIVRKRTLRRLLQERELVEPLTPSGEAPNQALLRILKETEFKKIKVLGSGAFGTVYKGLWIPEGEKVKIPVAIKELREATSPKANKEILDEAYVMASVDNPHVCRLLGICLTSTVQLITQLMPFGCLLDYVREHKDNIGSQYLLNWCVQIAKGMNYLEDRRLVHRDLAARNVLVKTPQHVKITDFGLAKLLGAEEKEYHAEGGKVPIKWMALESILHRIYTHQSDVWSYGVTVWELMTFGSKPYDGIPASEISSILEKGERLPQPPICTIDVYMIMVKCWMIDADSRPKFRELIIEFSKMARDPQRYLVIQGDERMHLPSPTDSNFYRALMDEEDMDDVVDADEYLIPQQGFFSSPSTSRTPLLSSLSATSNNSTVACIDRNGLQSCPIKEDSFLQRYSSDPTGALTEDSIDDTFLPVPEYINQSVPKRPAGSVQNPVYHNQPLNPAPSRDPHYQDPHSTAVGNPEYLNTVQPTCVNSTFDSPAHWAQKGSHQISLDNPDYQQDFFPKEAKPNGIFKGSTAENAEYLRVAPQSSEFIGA
Data set [5] is described as follows: Metabolic stability in Sprague-Dawley rat liver microsomes assessed as half-life at 10 uM preincubated for 5 mins in the presence of NADPH followed by microsomal addition and measured upto 60 mins by HPLC analysis. The note with it: time < 65 min. The format is ADME, Microsome. (Liver microsomes are vesicles of endoplasmic reticulum, rich in cytochrome P450 enzymes.)

Where only a bound is given, the exact number is not on record here.

ALK tyrosine kinase receptor (Homo sapiens, UniProt Q9UM73, L1196M), sequence (Q9UM73 19-1620 L1196M limits assumed): as the sequence (Q9UM73 19-1620 G1202R limits assumed) above, with L1178M, R1184G counted along it

For orientation: IC50 means the concentration that inhibits the measured activity by half. `Cc1[nH]c2cc(Nc3ncc(Cl)c(Nc4ccccc4NS(C)(=O)=O)n3)ccc2c1C(=O)NCCO`: the IC50 with NCI-H2228 is 307 nM; in the data set on A549, over 20000 nM; in the data set with KARPAS-299, 243 nM.
In the case of `CCOC(=O)c1c(C)[nH]c2cc(Nc3ncc(Cl)c(Nc4ccccc4NS(C)(=O)=O)n3)ccc12`, the half-maximal inhibitory concentration (IC50) stood at 91 nM with NCI-H2228, 1470 nM in the data set with A549 and 53 nM in the data set with KARPAS-299.
In the same order, the values of `Cc1[nH]c2cc(Nc3ncc(Cl)c(Nc4ccccc4NS(C)(=O)=O)n3)ccc2c1C(=O)N1CCN(C)CC1` are 214 nM, over 20000 nM and 113 nM.
The matching figures for `CNC(=O)c1ccccc1Nc1nc(Nc2ccc3c(C(=O)N4CCOCC4)c(C)[nH]c3c2)ncc1Cl`: 69 nM, 5790 nM and 42 nM.
For `Cc1[nH]c2cc(Nc3ncc(Cl)c(Nc4ccccc4NS(C)(=O)=O)n3)ccc2c1C(=O)N1CCC(C)CC1`, the IC50 is 203 nM in the data set with NCI-H2228; over 20000 nM in the data set with A549; 12.7 nM in data set [1]; 6.5 nM in data set [2]; 8.3 nM in data set [3]; 52 nM in the data set with KARPAS-299. Further, in data set [4], the half-inhibitory concentration (IC50) is over 1000 nM.
Take `CNC(=O)c1ccccc1Nc1nc(Nc2ccc3c(C(=O)OC)c(C)[nH]c3c2)ncc1Cl`: the IC50 in the data set with NCI-H2228 was found to be 77 nM; with A549 it was 3720 nM; in data set [1], 3.4 nM; in data set [2] it was 6.3 nM; in data set [3] it was 3 nM; with KARPAS-299, 37 nM. Further, the IC50 in data set [4] was over 1000 nM.
Consider `Cc1[nH]c2cc(Nc3ncc(Cl)c(Nc4ccccc4NS(C)(=O)=O)n3)ccc2c1C(=O)O`, for which the values for the IC50 with NCI-H2228, in the data set with A549 and in the data set on KARPAS-299 were 2600 nM, 5800 nM and 2160 nM, respectively.
In the same order, the values of `CNC(=O)c1ccccc1Nc1nc(Nc2ccc3c(C(=O)N4CCN(CCO)CC4)c(C)[nH]c3c2)ncc1Cl` are 933 nM, 13300 nM and 826 nM.
In the same order, the values of `CNC(=O)c1ccccc1Nc1nc(Nc2ccc3c(C(=O)N4CCCC4)c(C)[nH]c3c2)ncc1Cl` are 70 nM, 2720 nM and 39 nM.
Take `CCCc1[nH]c2cc(Nc3ncc(Cl)c(Nc4ccccc4C(=O)NC)n3)ccc2c1C(=O)OCC`: the IC50 in the data set with NCI-H2228 came out at 4350 nM; in the data set with A549, 7750 nM; with KARPAS-299, 1170 nM.
On to `CNC(=O)c1ccccc1Nc1nc(Nc2ccc3c(C(=O)N4CCC(C)CC4)c(C)[nH]c3c2)ncc1Cl`, for which the IC50 in the data set with NCI-H2228 is 129 nM; in the data set on A549, over 20000 nM; in data set [1], 4.8 nM; in data set [2], 6.7 nM; in data set [3], 3.9 nM; with KARPAS-299, 86 nM. Moreover, the IC50 in data set [4] was over 1000 nM.
As to `COC(=O)c1c(C)[nH]c2cc(Nc3ncc(Cl)c(Nc4ccccc4NC(C)=O)n3)ccc12`, the IC50 amounted to 2560 nM in the data set on NCI-H2228, 2960 nM with A549 and 600 nM in the data set on KARPAS-299.
With `CCOC(=O)c1c(C)[nH]c2cc(Nc3ncc(Cl)c(Nc4ccccc4C(=O)NC)n3)ccc12`, the IC50 was determined as 170 nM with NCI-H2228, 3360 nM in the data set with A549 and 150 nM with KARPAS-299.
The matching figures for `CCc1[nH]c2cc(Nc3ncc(Cl)c(Nc4ccccc4C(=O)NC)n3)ccc2c1C(=O)OC`: 790 nM, 3720 nM and 110 nM.
The matching figures for `Cc1[nH]c2cc(Nc3ncc(Cl)c(Nc4ccccc4NS(C)(=O)=O)n3)ccc2c1C(=O)N1CC(O)C1`: 494 nM, over 20000 nM and 802 nM.
In general, half-life refers to the time needed for the level to fall by half in the phase considered. For the compound `COc1cc(SCc2ccc(CN(C)C)o2)ccc1Nc1ncc(Cl)c(Nc2ccccc2NS(C)(=O)=O)n1`, the half-life at 10 µM in data set [5] amounted to 9.7 min.
Regarding `Cc1[nH]c2cc(Nc3ncc(Cl)c(Nc4ccccc4NS(C)(=O)=O)n3)ccc2c1C(=O)N1CCSCC1`, the IC50 with NCI-H2228 is 828 nM; with A549, 4220 nM; with KARPAS-299, 375 nM.
The matching figures for `CNC(=O)c1ccccc1Nc1nc(Nc2ccc3c(C(=O)N4CCCCC4)c(C)[nH]c3c2)ncc1Cl`: 99 nM, 448 nM and 63 nM.
The matching figures for `CCN1CCN(C(=O)c2c(C)[nH]c3cc(Nc4ncc(Cl)c(Nc5ccccc5NS(C)(=O)=O)n4)ccc23)CC1`: 247 nM, over 20000 nM and 132 nM.
In the same order, the values of `CNC(=O)c1ccccc1Nc1nc(Nc2ccc3c(C(=O)N4CCC[C@@H]4CO)c(C)[nH]c3c2)ncc1Cl` are 732 nM, 5760 nM and 558 nM.
On to `Cc1[nH]c2cc(Nc3ncc(Cl)c(Nc4ccccc4NS(C)(=O)=O)n3)ccc2c1C(=O)N(C)C`, for which the IC50 in the data set on NCI-H2228 was 97 nM; in the data set with A549, 4140 nM; in the data set with KARPAS-299, 50 nM.
The matching figures for `CCOC(=O)c1c(CC)[nH]c2cc(Nc3ncc(Cl)c(Nc4ccccc4C(=O)NC)n3)ccc12`: 1370 nM, 6230 nM and 970 nM.
With `CNC(=O)c1ccccc1Nc1nc(Nc2ccc3c(C(=O)N4CCC(O)CC4)c(C)[nH]c3c2)ncc1Cl`, the half-maximal inhibitory concentration (IC50) in the data set with NCI-H2228 came to 163 nM; in the data set on A549, 1900 nM; in data set [1] it was 13.7 nM; in data set [2], 5.3 nM; in data set [3], 10.2 nM; in the data set on KARPAS-299 it was 52 nM. Moreover, the IC50 in data set [4] was over 1000 nM.
Turning to `CCN1CCN(C(=O)c2c(C)[nH]c3cc(Nc4ncc(Cl)c(Nc5ccccc5C(=O)NC)n4)ccc23)CC1`, the IC50 in the data set on NCI-H2228 turned out to be 571 nM; with A549, 6630 nM; with KARPAS-299, 61 nM.
In the same order, the values of `Cc1[nH]c2cc(Nc3ncc(Cl)c(Nc4ccccc4NS(C)(=O)=O)n3)ccc2c1C(=O)N1CCCCC1` are 260 nM, 5920 nM and 247 nM.
Turning to `COC(=O)c1c(C)[nH]c2cc(Nc3ncc(Cl)c(Nc4ccccc4NS(C)(=O)=O)n3)ccc12`, the half-maximal inhibitory concentration (IC50) with NCI-H2228 was found to be 82 nM; with A549, 1150 nM; in data set [1] it was 3.2 nM; in data set [2], 8.9 nM; in data set [3], 3.8 nM; in the data set with KARPAS-299, 45 nM. Moreover, the IC50 in data set [4] was over 1000 nM.
As for `Cc1[nH]c2cc(Nc3ncc(Cl)c(Nc4ccccc4NS(C)(=O)=O)n3)ccc2c1C(=O)N1CCCC1`, the IC50 with NCI-H2228 worked out at 102 nM; with A549 it was 974 nM; in the data set on KARPAS-299 it was 52 nM.
In the same order, the values of `Cc1[nH]c2cc(Nc3ncc(Cl)c(Nc4ccccc4NS(C)(=O)=O)n3)ccc2c1C(=O)N1CCC(O)CC1` are 257 nM, over 20000 nM and 141 nM.
In the same order, the values of `CNC(=O)c1ccccc1Nc1nc(Nc2ccc3c(C(=O)N4CCN(C)CC4)c(C)[nH]c3c2)ncc1Cl` are 83 nM, 720 nM and 36 nM.
For `Cc1[nH]c2cc(Nc3ncc(Cl)c(Nc4ccccc4NS(C)(=O)=O)n3)ccc2c1C(=O)N1CCOCC1`, the IC50 with NCI-H2228 is 317 nM; in the data set with A549, 5360 nM; in data set [1], 6.6 nM; in data set [2], 5.9 nM; in data set [3], 5.7 nM; in the data set on KARPAS-299, 86 nM. Further, in data set [4], the IC50 is over 1000 nM.
`Cc1[nH]c2cc(Nc3ncc(Cl)c(Nc4ccccc4NS(C)(=O)=O)n3)ccc2c1C(=O)N1CCC[C@@H]1CO`: the results for the IC50 with NCI-H2228, with A549 and in the data set with KARPAS-299 were 2570 nM, 17800 nM and 485 nM, respectively.
The matching figures for `CNC(=O)c1ccccc1Nc1nc(Nc2ccc3c(C(=O)N4CC(O)C4)c(C)[nH]c3c2)ncc1Cl`: 2170 nM, 180 nM and 782 nM.
In the same order, the values of `Cc1[nH]c2cc(Nc3ncc(Cl)c(Nc4ccccc4NS(C)(=O)=O)n3)ccc2c1C(=O)N1CCN(CCO)CC1` are 329 nM, over 20000 nM and 735 nM.
